Data from patent US20080175800A1, “USE OF SPECIFIC MENTHYL 3-OXOCARBOXYLIC ACID ESTERS AS PHYSIOLOGICALLY ACTIVE COOLING SUBSTANCES” (SYMRISE GmbH & Co. KG, priority 2007, published 2008).

What was measured:
[1] = Sensory evaluation in confectioner's fondant by a panel of experts (cooling action); format: in vivo; details: 0.05 wt. % in confectioner's fondant; for cooling action: scale from 1 (no cooling action) to 9 (extremely strong cooling action)
Protocol: The compounds from Examples 1 and 2 were tested for their sensory properties, in particular their cooling action. To this end, they were dissolved, in each case in a specific final concentration, in a mass prepared from sucrose (saccharose) and water (confectioner's fondant, supplier Nordzucker AG, Nordstemmen) and evaluated by a panel of experts. Sensory impressions were rated and the cooling action was assessed on a scale from 1 (no cooling action) to 9 (extremely strong cooling action).

[2] = Skin-cooling characteristics, application site forearm; format: in vivo; details: forearm of human test subjects; compared with L-menthyl lactate (Frescolat ML)

CC(=O)CC(=O)O[C@@H]1C[C@H](C)CC[C@H]1C(C)C [Example 1, (L)-menthyl 3-oxo-butyrate]
cooling action [1]: 5-6
skin intensity of cooling [2]: overall weaker intensity of cooling

CCC(=O)CC(=O)O[C@@H]1C[C@H](C)CC[C@H]1C(C)C [Example 2, (L)-menthyl 3-oxo-pentanoate]
onset and duration of cooling action ([1]; compared with Example 1): slower onset but longer lasting than Example 1
cooling action [1]: 5-6
skin intensity of cooling [2]: overall weaker intensity of cooling
